Read-outs that look alike come from different tables or passages of the source.
Assays:
human MAO-B = molecular target: T1, human MAO-B (Homo sapiens, UniProt P27338); test: MAO-B enzymatic activity, spectrophotometric assay (tyramine, Amplex Red) on membranes of transfected EBNA cells; type: biochemical
T1 construct: expressed in transfected cells; host or cells: EBNA cells (transient transfection); cell membranes used
T1 sequence (P27338 1-520): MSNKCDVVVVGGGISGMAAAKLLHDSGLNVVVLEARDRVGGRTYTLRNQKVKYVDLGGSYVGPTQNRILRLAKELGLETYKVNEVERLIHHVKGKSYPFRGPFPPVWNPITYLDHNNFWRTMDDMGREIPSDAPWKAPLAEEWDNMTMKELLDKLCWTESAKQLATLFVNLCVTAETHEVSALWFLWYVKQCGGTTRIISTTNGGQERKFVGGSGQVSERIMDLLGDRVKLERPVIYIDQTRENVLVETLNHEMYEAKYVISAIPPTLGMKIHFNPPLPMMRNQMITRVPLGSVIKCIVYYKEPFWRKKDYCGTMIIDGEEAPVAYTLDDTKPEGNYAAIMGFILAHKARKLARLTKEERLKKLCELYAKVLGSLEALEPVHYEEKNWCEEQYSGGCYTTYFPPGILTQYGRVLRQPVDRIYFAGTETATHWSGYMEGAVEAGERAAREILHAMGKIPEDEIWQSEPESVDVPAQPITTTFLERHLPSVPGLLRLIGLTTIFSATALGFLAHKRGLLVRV
Procedure: The cDNA's encoding human MAO-A and MAO-B were transiently transfected into EBNA cells using the procedure described by E.-J. Schlaeger and K. Christensen (Transient Gene Expression in Mammalian Cells Grown in Serum-free Suspension Culture; Cytotechnology, 15: 1-13, 1998). After transfection, cells were homogenised by means of a Polytron homogenizer in 20 mM Tris HCl buffer, pH 8.0, containing 0.5 mM EGTA and 0.5 mM phenylmethanesulfonyl fluoride. Cell membranes were obtained by centrifugation at 45,000×g and, after two rinsing step with 20 mM Tris HCl buffer, pH 8.0, containing 0.5 mM EGTA, membranes were eventually re-suspended in the above buffer and aliquots stored at −80° C. until use.
(§1) MAO-A and MAO-B enzymatic activity was assayed in 96-well-plates using a spectrophotometric assay adapted from the method described by M. Zhou and N. Panchuk-Voloshina (A One-Step Fluorometric Method for the Continuous Measurement of Monoamine Oxidase Activity, Analytical Biochemistry, 253: 169174, 1997). Briefly, membrane aliquots were incubated in 0.1 M potassium phosphate buffer, pH 7.4, for 30 min at 37° C. with or without various concentrations of the compounds. After this period, the enzymatic reaction was started by the addition of the MAO substrate tyramine together with 1 U/ml horse-radish peroxidase (Roche Biochemicals) and 80 μM N-acetyl-3,7,-dihydroxyphenoxazine (Amplex Red, Molecular Probes). The samples were further incubated for 30 min at 37° C. in a final volume of 200 μl and absorbance was then determined at a wavelength of 570 nm using a SpectraMax plate reader (Molecular Devices). Background (non-specific) absorbance was determined in the presence of 10 μM clorgyline for MAO-A or 10 μM L-deprenyl for MAO-B.
IC50 values, that is, the concentration of a test compound according to the invention required to inhibit the MAO-B enzyme activity by 50%, were determined from inhibition curves obtained using nine inhibitor concentrations in duplicate, by fitting data to a four parameter logistic equation using a computer program.

human MAO-A = molecular target: T2, human MAO-A (Homo sapiens, UniProt P21397); test: MAO-A enzymatic activity, spectrophotometric assay (tyramine, Amplex Red) on membranes of transfected EBNA cells; type: biochemical
T2 construct: expressed in transfected cells; host or cells: EBNA cells (transient transfection); cell membranes used
Procedure: After transfection, cells were homogenised by means of a Polytron homogenizer in 20 mM Tris HCl buffer, pH 8.0, containing 0.5 mM EGTA and 0.5 mM phenylmethanesulfonyl fluoride. Cell membranes were obtained by centrifugation at 45,000×g and, after two rinsing step with 20 mM Tris HCl buffer, pH 8.0, containing 0.5 mM EGTA, membranes were eventually re-suspended in the above buffer and aliquots stored at −80° C. until use.
as §1, with “Briefly,” for “MAO-A and MAO-B enzymatic activity was assayed in 96-well-plates using a spectrophotometric assay adapted from the method described by M. Zhou and N. Panchuk-Voloshina (A One-Step Fluorometric Method for the Continuous Measurement of Monoamine Oxidase Activity, Analytical Biochemistry, 253: 169174, 1997). Briefly,”

[1] = membranes, 30 min preincubation at 37° C., pH 7.4, substrate tyramine, read-out: IC50 MAO-A

T2 sequence (P21397 whole entry): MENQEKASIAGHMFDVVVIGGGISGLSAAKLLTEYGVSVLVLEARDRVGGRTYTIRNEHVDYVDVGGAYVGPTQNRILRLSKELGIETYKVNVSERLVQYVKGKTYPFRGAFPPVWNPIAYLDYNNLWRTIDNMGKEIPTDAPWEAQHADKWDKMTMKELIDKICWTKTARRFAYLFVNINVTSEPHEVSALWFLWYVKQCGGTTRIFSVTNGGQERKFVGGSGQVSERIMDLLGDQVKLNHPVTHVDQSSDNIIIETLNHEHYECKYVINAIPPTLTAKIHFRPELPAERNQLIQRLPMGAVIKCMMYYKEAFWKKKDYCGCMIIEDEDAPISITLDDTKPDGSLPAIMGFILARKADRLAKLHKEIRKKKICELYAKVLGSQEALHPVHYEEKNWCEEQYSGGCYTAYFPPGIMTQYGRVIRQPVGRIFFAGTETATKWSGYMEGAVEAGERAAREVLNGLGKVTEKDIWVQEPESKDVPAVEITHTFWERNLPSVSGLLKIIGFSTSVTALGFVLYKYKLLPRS

Question: With `NC(=O)CN1CCc2cc(OCc3cccc(F)c3)ccc2C1=O` [Example 6, 2-[6-(3-Fluoro-benzyloxy)-1-oxo-3,4-dihydro-1H-isoquinolin-2-yl]-acetamide] as the molecule, how does the IC50 (human MAO-B) read?
Answer: The IC50 was 8 nM.

Question: And the IC50 (human MAO-A; [1])?
Answer: Its IC50 is 330 nM.

Question: Which results are given for `C[C@@H](C(N)=O)N1CCc2cc(OCc3ccc(F)cc3)ccc2C1=O` [Example 21, 2(S)-[6-(4-Fluoro-benzyloxy)-1-oxo-3,4-dihydro-1H-isoquinolin-2-yl]-propionamide]?
Answer: IC50 (human MAO-B): 18 nM; IC50 (human MAO-A): > 10000 nM

Question: For `C[C@H](C(N)=O)N1CCc2cc(OCc3ccc(F)cc3)ccc2C1=O` [Example 20, 2-(R)-[6-(4-Fluoro-benzyloxy)-1-oxo-3,4-dihydro-1H-isoquinolin-2-yl]-propionamide], which IC50 (human MAO-B) is on record?
Answer: The IC50 was 12 nM.

Question: And the IC50 (human MAO-A)?
Answer: The IC50 was > 10000 nM.

Question: For `N#CCN1CCc2cc(OCc3cccc(F)c3)ccc2C1=O` [Example 12, [6-(3-Fluoro-benzyloxy)-1-oxo-3,4-dihydro-1H-isoquinolin-2-yl]-acetonitrile], which IC50 (human MAO-B) is on record?
Answer: Its IC50 is 154 nM.

Question: `NC(=O)CCN1CCc2cc(OCc3cccc(F)c3)ccc2C1=O` [Example 19, 3-[6 (3-Fluoro-benzyloxy)-1-oxo-3,4-dihydro-1H-isoquinolin-2-yl]-propionamide] was tested. Which IC50 (human MAO-B) did it give?
Answer: The IC50 was 392 nM.

Question: How did the IC50 (human MAO-B) turn out when `O=C1NCCc2cc(OCc3cccc(F)c3)ccc21` [Example 1, 6-(3-Fluoro-benzyloxy)-3,4-dihydro-2H-isoquinolin-1-one] was run?
Answer: The IC50 was 104 nM.

Question: And the IC50 (human MAO-A; [1])?
Answer: Its IC50 is 5240 nM.

Question: How did the IC50 (human MAO-B) turn out when `CC(C)(C(N)=O)N1CCc2cc(OCc3ccc(F)cc3)ccc2C1=O` [Example 30, 2-[6-(4-Fluoro-benzyloxy)-1-oxo-3,4-dihydro-1H-isoquinolin-2-yl]-isobutyramide] was run?
Answer: Its IC50 is 1130 nM.

Question: With `CC(C(N)=O)N1CCc2cc(OCc3cccc(F)c3)ccc2C1=O` (racemic) [Example 7, 2-[6-(3-Fluoro-benzyloxy)-1-oxo-3,4-dihydro-1H-isoquinolin-2-yl]-propionamide] as the molecule, how does the IC50 (human MAO-B) read?
Answer: The IC50 was 12 nM.

Question: And the IC50 (human MAO-A; [1])?
Answer: Its IC50 is > 10000 nM.

Question: `NC(=O)[C@H](CO)N1CCc2cc(OCc3ccc(F)cc3)ccc2C1=O` [Example 22, 2(S)-[6(4-Fluoro-benzyloxy)-1-oxo-3,4-dihydro-1H-isoquinolin-2-yl]-3-hydroxy-propionamide] was tested. Which IC50 (human MAO-B) did it give?
Answer: The IC50 was 20 nM.

Question: And the IC50 (human MAO-A)?
Answer: The IC50 was > 10000 nM.

Question: For `COCC(C)N1CCc2cc(OCc3cccc(F)c3)ccc2C1=O` (stereo not shown) [Example 14, 6-(3-Fluoro-benzyloxy)-2-(2-methoxy-1-methyl-ethyl)-3,4-dihydro-2H-isoquinolin-1-one], which IC50 (human MAO-B) is on record?
Answer: The IC50 was 63 nM.

Question: And the IC50 (human MAO-A)?
Answer: Its IC50 is 4220 nM.

Question: `CC(CO)N1CCc2cc(OCc3cccc(F)c3)ccc2C1=O` (stereo not shown) [Example 8, 6-(3-Fluoro-benzyloxy)-2-(2-hydroxy-1-methyl-ethyl)-3,4-dihydro-2H-isoquinolin-1-one] was tested. Which IC50 (human MAO-B) did it give?
Answer: The IC50 was 74 nM.

Question: What about the IC50 (human MAO-A; [1]) of the same molecule?
Answer: The IC50 was > 10000 nM.

Reference: patent publication US6818774B2, “Isoquinoline derivatives” (priority 2002, dated 2004)
